Counter-ions that a name gives are not always drawn.
Target: T1, Na-H exchange (Rattus norvegicus, UniProt P26431)
T1 construct: The blood was centrifuged at 3000 r.p.m. for […] to obtain platelet rich plasma (PRP); from tissue; host or cells: platelets in platelet rich plasma from the blood of male Wistar rats
Assay: Inhibition of platelet swelling (light transmittance of platelet rich plasma after sodium propionate), indicator of Na-H exchange inhibition
Format: cell-based, Wistar rats
Details: rat PRP, value one minute after sodium propionate solution (pH 6.7, 37 °C), difference between 1% DMSO and HOE-642 (10^-5 M) taken as 100
Experimental: Male Wistar rats (350-450 g) were anesthetized with sodium pentobarbital (50 mg/kg, i.p.). Using a disposable syringe pre-filled with 1.5 ml of a 3.8% citric acid solution, 8.5 ml of blood was collected from the abdominal aorta. The blood was centrifuged at 3000 r.p.m. for […] to obtain platelet rich plasma (PRP). The number of platelets in the PRP was counted by an automatic hemocytometer (Sysmex 2500, TOA Medical Electronics). The PRP was diluted with physiological saline to make the concentration of 40 x 10^4 platelets per microliter. A platelet aggregometer (Hematoracer, Niko Bioscience) was used for mesurement of the platelet swelling. 200 Microliters of the PRP was poured into a cuvette and 600 µl of a sodium propionate solution (Na propionate 135, glucose 10: HEPES 20, CaCl2 1, MgCl2 1, Units mM, pH 6.7) was added while stirring at 37 °C. The change in the light transmittance of PRP which was an indicator of the platelet swelling was recorded on a plotter. The test compound was added 3 minutes before addition of the sodium propionate solution. Test compounds were dissolved in dimethyl sulfoxide (DMSO). The final concentration of DMSO was adjusted to 1%. The values obtained one minute after addition of the sodium propionate solution were subjected to analysis. The rate of the inhibition of the test compound on the increase of the light transmittance was calculated designating the difference obtained between the treatments with 1% DMSO and HOE-642 (10^-5 M) as 100. […]

T1 sequence (P26431 whole entry): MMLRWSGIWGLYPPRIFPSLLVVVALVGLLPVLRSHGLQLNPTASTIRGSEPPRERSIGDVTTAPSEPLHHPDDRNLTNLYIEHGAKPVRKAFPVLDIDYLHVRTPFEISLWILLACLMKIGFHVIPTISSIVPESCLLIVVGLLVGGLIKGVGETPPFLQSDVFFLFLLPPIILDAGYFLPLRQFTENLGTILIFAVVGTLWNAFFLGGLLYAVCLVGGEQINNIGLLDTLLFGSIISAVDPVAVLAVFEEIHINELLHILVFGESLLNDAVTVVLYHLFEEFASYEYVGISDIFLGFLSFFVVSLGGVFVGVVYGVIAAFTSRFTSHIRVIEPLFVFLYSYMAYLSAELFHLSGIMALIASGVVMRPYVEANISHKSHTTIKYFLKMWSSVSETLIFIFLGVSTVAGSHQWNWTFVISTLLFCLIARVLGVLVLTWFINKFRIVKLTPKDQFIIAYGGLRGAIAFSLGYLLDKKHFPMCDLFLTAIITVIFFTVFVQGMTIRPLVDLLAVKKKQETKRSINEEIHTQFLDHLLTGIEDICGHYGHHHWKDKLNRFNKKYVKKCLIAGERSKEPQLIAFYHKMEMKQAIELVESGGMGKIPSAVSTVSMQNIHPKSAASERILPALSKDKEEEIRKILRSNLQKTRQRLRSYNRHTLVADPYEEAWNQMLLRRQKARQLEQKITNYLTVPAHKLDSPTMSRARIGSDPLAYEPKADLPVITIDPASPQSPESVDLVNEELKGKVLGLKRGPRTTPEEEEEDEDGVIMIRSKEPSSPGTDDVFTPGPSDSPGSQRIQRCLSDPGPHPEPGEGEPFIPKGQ

For “8-methyl-4-(2-methylphenyl)phthalazin-1-ylguanidine [Compound 44]”, the “Inhibitory ratio (%)” value (1µM) was 55% and the “Inhibitory ratio (%)” value (3µM) was 73%.

For `NC(N)=Nc1nnc(-c2ccccc2)c2cccc(I)c12` [Compound 4, 8-iodo-4-phenylphthalazin-1-ylguanidine hydrochloride], the “Inhibitory ratio (%)” value (1µM) was 66% and the “Inhibitory ratio (%)” value (3µM) was 78%.

For `NC(N)=Nc1nnc(-c2ccccc2)c2cccc(Br)c12` [Compound 13, 8-bromo-4-phenylphthalazin-1-ylguanidine], the “Inhibitory ratio (%)” value (1µM) was 60% and the “Inhibitory ratio (%)” value (3µM) was 99%.

In the case of `Cc1ccccc1-c1nnc(N=C(N)N)c2c(Br)cccc12` [Compound 24, 8-bromo-4-(2-methylphenyl)phthalazin-1-ylguanidine], the “Inhibitory ratio (%)” value (1µM) is reported as 62% and the “Inhibitory ratio (%)” value (3µM) is reported as 78%.

`Cc1ccccc1-c1nnc(N=C(N)N)c2c(I)cccc12` [Compound 28, 8-iodo-4-(2-methylphenyl)phthalazin-1-ylguanidine] was tested, and the “Inhibitory ratio (%)” value (1µM) was 66% and the “Inhibitory ratio (%)” value (3µM) was 96%.

In the case of `NC(N)=Nc1nnc(-c2ccc(F)cc2)c2cccc(I)c12` [Compound 36, 4-(4-fluorophenyl)-8-iodophthalazin-1-ylguanidine], the “Inhibitory ratio (%)” value (1µM) is reported as 58% and the “Inhibitory ratio (%)” value (3µM) is reported as 78%.
